Data from patent publication US20230330045A1 (priority 2020, published 2023).
Where two headings read alike, the source gives them in different places.

Experiments:
[1] = molecular target: hERG potassium channel (Homo sapiens, UniProt Q12809); test: SafetyScreen44 binding assay Potassium Channel hERG (human)-[3H] Dofetilide; settings: probe [3H] Dofetilide, read-out: % Inhibition of Specific Control Binding
From the text: (§1) This panel included 38 binding assays and six functional assays of well-established targets and pathways that lead to off-target adverse drug reactions.

[2] = molecular target: COX2(h) (Homo sapiens, UniProt P35354); test: SafetyScreen44 enzyme assay COX2(h); assay type: biochemical; settings: read-out: % Inhibition of Control Values
Chain of COX2(h) (P35354 18-604): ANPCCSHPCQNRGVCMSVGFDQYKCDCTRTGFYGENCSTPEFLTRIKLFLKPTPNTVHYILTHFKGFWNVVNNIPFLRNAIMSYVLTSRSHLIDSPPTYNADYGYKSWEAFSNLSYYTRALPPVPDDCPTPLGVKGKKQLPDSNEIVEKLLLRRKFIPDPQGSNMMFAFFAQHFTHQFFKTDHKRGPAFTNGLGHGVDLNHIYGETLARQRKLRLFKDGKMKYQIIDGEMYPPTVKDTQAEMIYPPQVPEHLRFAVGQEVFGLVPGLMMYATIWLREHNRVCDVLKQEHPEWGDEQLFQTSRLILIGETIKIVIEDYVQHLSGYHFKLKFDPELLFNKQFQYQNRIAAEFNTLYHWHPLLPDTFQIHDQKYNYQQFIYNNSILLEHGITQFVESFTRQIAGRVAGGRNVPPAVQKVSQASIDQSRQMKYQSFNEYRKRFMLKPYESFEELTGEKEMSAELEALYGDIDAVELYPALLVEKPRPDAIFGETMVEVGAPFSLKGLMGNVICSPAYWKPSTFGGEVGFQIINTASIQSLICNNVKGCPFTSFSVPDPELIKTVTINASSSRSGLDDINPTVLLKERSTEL
From the text: as §1

[3] = molecular target: V1a (h) (Homo sapiens, UniProt P37288); test: SafetyScreen44 binding assay V1a (h); settings: agonist radioligand, read-out: % Inhibition of Specific Control Binding
From the text: as §1

[4] = molecular target: alpha 1A (h) (Homo sapiens, UniProt P35348); test: SafetyScreen44 binding assay alpha 1A (h); settings: antagonist radioligand, read-out: % Inhibition of Specific Control Binding
Chain of alpha 1A (h) (P35348 whole entry): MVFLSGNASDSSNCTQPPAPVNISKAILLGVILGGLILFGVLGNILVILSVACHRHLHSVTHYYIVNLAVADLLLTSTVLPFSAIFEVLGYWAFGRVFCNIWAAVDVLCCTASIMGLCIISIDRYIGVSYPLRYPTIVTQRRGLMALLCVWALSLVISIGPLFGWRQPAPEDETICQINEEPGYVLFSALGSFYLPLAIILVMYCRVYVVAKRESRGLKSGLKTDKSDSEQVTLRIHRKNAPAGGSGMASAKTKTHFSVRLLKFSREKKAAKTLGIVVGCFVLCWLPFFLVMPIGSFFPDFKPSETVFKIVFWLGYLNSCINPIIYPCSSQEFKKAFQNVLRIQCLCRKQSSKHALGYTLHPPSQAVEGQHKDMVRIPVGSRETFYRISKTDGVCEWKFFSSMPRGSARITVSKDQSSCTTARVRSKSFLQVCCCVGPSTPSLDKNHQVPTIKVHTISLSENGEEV
From the text: as §1

[5] = molecular target: M2 (h) (Homo sapiens, UniProt P08172); test: SafetyScreen44 binding assay M2 (h); settings: antagonist radioligand, read-out: % Inhibition of Specific Control Binding
From the text: as §1

[6] = molecular target: D1 (h) (Homo sapiens, UniProt P21728); test: SafetyScreen44 binding assay D1 (h); settings: antagonist radioligand, read-out: % Inhibition of Specific Control Binding
From the text: as §1

[7] = molecular target: human butyrylcholinesterase (BuChE) (Homo sapiens, UniProt P06276); test: Human BuChE colorimetric activity kit assay; assay type: biochemical
Chain of human butyrylcholinesterase (BuChE) (P06276 29-602): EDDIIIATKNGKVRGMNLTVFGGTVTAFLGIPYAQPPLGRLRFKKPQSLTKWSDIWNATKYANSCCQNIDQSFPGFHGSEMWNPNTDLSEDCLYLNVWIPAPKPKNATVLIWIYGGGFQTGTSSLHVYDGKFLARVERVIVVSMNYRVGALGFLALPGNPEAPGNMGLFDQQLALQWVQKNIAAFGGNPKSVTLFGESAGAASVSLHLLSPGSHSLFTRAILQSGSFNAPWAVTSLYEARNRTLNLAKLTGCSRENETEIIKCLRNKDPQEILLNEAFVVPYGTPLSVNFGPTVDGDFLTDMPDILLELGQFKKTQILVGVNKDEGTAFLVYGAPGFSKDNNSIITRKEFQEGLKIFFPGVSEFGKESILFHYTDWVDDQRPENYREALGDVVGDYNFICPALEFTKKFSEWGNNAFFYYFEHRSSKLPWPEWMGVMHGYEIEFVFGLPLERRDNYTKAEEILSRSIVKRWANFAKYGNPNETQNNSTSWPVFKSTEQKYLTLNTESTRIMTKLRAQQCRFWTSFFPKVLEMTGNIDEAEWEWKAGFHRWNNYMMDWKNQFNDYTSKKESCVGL
Description: Reactions were performed in 384-well plates (781162, Greiner BioOne, GmbH, Kremsmunster, Austria) with 1% DMSO, according to the manufacturer's instructions with a few modifications. Compounds were incubated with enzyme for 30 minutes at room temperature before addition of substrate. Total volume of the reaction was 100 μL, we use 5 μL enzyme and kinetic reactions were performed at 30° C. for 60 minutes using a microplate reader sold under the tradename SPECTRAMAX™ iD5 (Molecular Devices, San Jose, California, United States of America) and an absorbance of 412 nm. Percent activity was calculated by calculating the slope of each reaction as stated above and comparing the positive control (PC) to sample (S): % Relative activity=SlopeS/SlopePCx100. We evaluated if assay reagents could interfere with the absorbance by adding compound or DMSO to a 150 μM solution of 5-thio-2-nitrobenzoic acid and measuring at […].

[8] = molecular target: H1 (h) (Homo sapiens, UniProt P35367); test: SafetyScreen44 binding assay H1 (h); settings: antagonist radioligand, read-out: % Inhibition of Specific Control Binding
From the text: as §1

[9] = molecular target: beta 1 (h) (Homo sapiens, UniProt P08588); test: SafetyScreen44 binding assay beta 1 (h); settings: agonist radioligand, read-out: % Inhibition of Specific Control Binding
From the text: as §1

[10] = tested on: KV channel; test: SafetyScreen44 binding assay KV channel; settings: at 1 μM; antagonist radioligand
From the text: as §1

[11] = molecular target: MAO-A (Rattus norvegicus, UniProt P21396); test: SafetyScreen44 binding assay MAO-A; settings: antagonist radioligand, read-out: % Inhibition of Specific Control Binding
From the text: as §1

[12] = molecular target: M3 (h) (Homo sapiens, UniProt P20309); test: SafetyScreen44 binding assay M3 (h); settings: antagonist radioligand, read-out: % Inhibition of Specific Control Binding
Chain of M3 (h) (P20309 whole entry): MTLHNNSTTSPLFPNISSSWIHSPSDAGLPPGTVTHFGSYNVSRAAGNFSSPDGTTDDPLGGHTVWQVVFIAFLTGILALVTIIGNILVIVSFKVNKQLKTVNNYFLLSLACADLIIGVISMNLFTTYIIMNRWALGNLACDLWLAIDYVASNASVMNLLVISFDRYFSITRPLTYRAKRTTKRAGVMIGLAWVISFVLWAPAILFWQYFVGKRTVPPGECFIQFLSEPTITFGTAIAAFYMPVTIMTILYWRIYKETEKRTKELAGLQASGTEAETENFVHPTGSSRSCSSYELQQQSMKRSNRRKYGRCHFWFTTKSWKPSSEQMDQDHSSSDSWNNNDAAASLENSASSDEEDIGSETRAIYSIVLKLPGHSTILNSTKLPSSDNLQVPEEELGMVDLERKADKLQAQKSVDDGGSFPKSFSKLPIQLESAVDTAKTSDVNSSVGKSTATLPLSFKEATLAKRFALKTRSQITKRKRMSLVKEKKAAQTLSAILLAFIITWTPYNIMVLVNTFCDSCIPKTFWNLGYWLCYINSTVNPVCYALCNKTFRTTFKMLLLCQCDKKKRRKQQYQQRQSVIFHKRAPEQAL
From the text: as §1

[13] = molecular target: 5-HT1B (h) (Homo sapiens, UniProt P28222); test: SafetyScreen44 binding assay 5-HT1B (h); settings: antagonist radioligand, read-out: % Inhibition of Specific Control Binding
Chain of 5-HT1B (h) (P28222 whole entry): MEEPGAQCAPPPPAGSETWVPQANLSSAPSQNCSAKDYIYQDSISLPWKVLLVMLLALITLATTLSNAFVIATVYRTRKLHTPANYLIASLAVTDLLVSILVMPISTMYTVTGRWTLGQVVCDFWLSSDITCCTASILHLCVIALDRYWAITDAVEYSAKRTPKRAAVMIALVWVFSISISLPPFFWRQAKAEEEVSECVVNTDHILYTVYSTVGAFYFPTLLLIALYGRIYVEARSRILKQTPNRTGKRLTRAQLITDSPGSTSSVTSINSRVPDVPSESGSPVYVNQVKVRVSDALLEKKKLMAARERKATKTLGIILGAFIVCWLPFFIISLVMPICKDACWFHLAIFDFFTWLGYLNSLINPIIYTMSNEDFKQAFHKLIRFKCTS
From the text: as §1

[14] = molecular target: alpha 2A (h) (Homo sapiens, UniProt P08913); test: SafetyScreen44 binding assay alpha 2A (h); settings: antagonist radioligand, read-out: % Inhibition of Specific Control Binding
Chain of alpha 2A (h) (P08913 whole entry): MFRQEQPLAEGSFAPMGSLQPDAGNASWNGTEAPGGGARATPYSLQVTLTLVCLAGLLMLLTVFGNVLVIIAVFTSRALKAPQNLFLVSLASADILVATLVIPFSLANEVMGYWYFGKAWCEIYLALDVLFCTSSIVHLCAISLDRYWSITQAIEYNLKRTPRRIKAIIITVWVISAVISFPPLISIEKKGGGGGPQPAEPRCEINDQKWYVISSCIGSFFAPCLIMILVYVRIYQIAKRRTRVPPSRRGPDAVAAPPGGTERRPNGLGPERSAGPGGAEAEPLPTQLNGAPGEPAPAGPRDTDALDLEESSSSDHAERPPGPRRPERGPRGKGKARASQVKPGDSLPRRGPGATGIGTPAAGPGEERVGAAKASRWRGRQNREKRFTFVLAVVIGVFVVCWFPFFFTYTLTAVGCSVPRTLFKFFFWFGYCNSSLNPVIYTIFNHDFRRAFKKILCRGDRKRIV
From the text: as §1

[15] = molecular target: acetylcholinesterase (h) (Homo sapiens, UniProt P22303); test: SafetyScreen44 enzyme assay acetylcholinesterase (h); assay type: biochemical; settings: at 1 μM
From the text: as §1

[16] = molecular target: CCK1 (CCKA) (h) (Homo sapiens, UniProt P32238); test: SafetyScreen44 binding assay CCK1 (CCKA) (h); settings: agonist radioligand, read-out: % Inhibition of Specific Control Binding
Chain of CCK1 (CCKA) (h) (P32238 whole entry): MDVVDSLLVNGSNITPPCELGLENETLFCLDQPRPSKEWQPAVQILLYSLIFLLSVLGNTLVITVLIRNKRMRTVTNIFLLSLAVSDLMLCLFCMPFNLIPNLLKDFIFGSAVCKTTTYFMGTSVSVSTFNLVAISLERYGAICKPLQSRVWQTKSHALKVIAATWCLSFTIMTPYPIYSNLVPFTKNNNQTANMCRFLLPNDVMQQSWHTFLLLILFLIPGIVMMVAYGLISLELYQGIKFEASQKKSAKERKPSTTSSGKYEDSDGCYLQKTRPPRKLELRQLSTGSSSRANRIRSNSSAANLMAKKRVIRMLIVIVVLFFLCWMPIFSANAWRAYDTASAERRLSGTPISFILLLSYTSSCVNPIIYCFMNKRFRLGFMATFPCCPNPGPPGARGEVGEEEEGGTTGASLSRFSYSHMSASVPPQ
From the text: as §1

[17] = molecular target: norepinephrine transporter (h) (Homo sapiens, UniProt P23975); test: SafetyScreen44 binding assay norepinephrine transporter (h); settings: antagonist radioligand, read-out: % Inhibition of Specific Control Binding
From the text: as §1

[18] = molecular target: 5-HT1A (h) (Homo sapiens, UniProt P08908); test: SafetyScreen44 binding assay 5-HT1A (h); settings: agonist radioligand, read-out: % Inhibition of Specific Control Binding
From the text: as §1

[19] = molecular target: dopamine transporter (h) (Homo sapiens, UniProt Q01959); test: SafetyScreen44 binding assay dopamine transporter (h); settings: antagonist radioligand, read-out: % Inhibition of Specific Control Binding
From the text: as §1

[20] = molecular target: mu (MOP) (h) (Homo sapiens, UniProt P35372); test: SafetyScreen44 binding assay mu (MOP) (h); settings: agonist radioligand, read-out: % Inhibition of Specific Control Binding
From the text: as §1

[21] = tested on: Ca2+ channel (L, dihydropyridine site); test: SafetyScreen44 binding assay Ca2+ channel (L, dihydropyridine site); settings: at 1 μM; antagonist radioligand
From the text: as §1

[22] = molecular target: D2S (h) (Homo sapiens, UniProt P14416); test: SafetyScreen44 binding assay D2S (h); settings: agonist radioligand, read-out: % Inhibition of Specific Control Binding
From the text: as §1

[23] = molecular target: CB1 (h) (Homo sapiens, UniProt P21554); test: SafetyScreen44 binding assay CB1 (h); settings: agonist radioligand, read-out: % Inhibition of Specific Control Binding
From the text: as §1

[24] = molecular target: 5-HT2B (h) (Homo sapiens, UniProt P41595); test: SafetyScreen44 binding assay 5-HT2B (h); settings: agonist radioligand, read-out: % Inhibition of Specific Control Binding
From the text: as §1

[25] = molecular target: 5-HT3 (h) (Homo sapiens, UniProt P46098); test: SafetyScreen44 binding assay 5-HT3 (h); settings: antagonist radioligand, read-out: % Inhibition of Specific Control Binding
Chain of 5-HT3 (h) (P46098 24-478): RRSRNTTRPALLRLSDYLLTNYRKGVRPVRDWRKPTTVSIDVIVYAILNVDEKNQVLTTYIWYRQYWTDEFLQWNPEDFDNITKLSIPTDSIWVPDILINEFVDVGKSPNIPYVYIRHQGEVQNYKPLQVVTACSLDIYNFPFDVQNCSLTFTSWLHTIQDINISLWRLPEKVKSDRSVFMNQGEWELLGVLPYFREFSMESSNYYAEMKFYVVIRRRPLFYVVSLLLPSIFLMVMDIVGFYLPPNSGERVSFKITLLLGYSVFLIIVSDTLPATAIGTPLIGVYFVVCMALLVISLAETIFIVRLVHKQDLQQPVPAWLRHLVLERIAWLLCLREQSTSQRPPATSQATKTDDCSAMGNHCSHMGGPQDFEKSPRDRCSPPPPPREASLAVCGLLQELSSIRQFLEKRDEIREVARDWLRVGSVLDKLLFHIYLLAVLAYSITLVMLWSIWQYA
From the text: as §1

[26] = molecular target: 5-HT2A (h) (Homo sapiens, UniProt P28223); test: SafetyScreen44 binding assay 5-HT2A (h); settings: agonist radioligand, read-out: % Inhibition of Specific Control Binding
From the text: as §1

[27] = molecular target: M1 (h) (Homo sapiens, UniProt P11229); test: SafetyScreen44 binding assay M1 (h); settings: antagonist radioligand, read-out: % Inhibition of Specific Control Binding
Chain of M1 (h) (P11229 whole entry): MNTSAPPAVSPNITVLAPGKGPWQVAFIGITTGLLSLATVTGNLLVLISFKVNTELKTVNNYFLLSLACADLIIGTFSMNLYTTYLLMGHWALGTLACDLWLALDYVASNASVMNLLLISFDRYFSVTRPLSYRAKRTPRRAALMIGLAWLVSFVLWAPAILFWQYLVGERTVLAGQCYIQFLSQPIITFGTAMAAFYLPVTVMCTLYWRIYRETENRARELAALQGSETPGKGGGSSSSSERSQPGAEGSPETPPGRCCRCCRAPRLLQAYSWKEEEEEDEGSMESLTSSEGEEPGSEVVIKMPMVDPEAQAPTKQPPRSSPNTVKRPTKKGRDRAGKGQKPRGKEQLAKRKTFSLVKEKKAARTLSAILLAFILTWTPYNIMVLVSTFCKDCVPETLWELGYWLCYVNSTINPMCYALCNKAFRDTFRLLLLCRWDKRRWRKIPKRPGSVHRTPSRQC
From the text: as §1

[28] = molecular target: CB2 (h) (Homo sapiens, UniProt P34972); test: SafetyScreen44 binding assay CB2 (h); settings: agonist radioligand, read-out: % Inhibition of Specific Control Binding
From the text: as §1

[29] = molecular target: delta (DOP) (h) (Homo sapiens, UniProt P41143); test: SafetyScreen44 binding assay delta (DOP) (h); settings: agonist radioligand, read-out: % Inhibition of Specific Control Binding
From the text: as §1

[30] = molecular target: human AChE (Homo sapiens, UniProt P22303); assay type: biochemical
Chain of human AChE (P22303 32-614): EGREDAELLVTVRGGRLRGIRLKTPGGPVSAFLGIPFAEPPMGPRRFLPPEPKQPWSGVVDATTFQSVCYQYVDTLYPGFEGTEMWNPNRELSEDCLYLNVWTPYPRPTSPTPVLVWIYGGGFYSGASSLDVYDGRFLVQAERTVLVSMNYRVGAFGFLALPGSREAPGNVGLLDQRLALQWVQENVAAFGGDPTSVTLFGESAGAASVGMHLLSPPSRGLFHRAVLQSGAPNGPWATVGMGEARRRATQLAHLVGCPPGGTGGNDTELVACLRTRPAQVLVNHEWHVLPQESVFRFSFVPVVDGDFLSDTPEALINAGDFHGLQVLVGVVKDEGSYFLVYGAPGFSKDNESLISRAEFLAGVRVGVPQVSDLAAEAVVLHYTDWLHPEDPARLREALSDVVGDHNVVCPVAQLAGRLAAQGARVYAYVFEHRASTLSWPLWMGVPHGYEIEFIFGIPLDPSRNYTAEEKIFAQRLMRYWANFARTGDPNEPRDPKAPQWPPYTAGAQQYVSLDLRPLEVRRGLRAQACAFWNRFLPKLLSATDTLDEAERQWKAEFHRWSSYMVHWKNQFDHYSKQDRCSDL

[31] = molecular target: N neuronal alpha 4beta 2 (h) (Homo sapiens, UniProt P17787+P43681); test: SafetyScreen44 binding assay N neuronal alpha 4beta 2 (h); settings: agonist radioligand, read-out: % Inhibition of Specific Control Binding
From the text: as §1

[32] = molecular target: ETA (h) (Homo sapiens, UniProt P25101); test: SafetyScreen44 binding assay ETA (h); settings: agonist radioligand, read-out: % Inhibition of Specific Control Binding
From the text: as §1

[33] = tested on: BZD (central); test: SafetyScreen44 binding assay BZD (central); settings: at 1 μM; agonist radioligand
From the text: as §1

[34] = molecular target: A2A (h) (Homo sapiens, UniProt P29274); test: SafetyScreen44 binding assay A2A (h); settings: agonist radioligand, read-out: % Inhibition of Specific Control Binding
From the text: as §1

CCN(CC)CCOc1ccc2c(c1)C(=O)c1cc(OCCN(CC)CC)ccc1-2 [tilorone]
inhibition at 1 µM [1]: -4% | inhibition at 1 µM [2]: -1% | inhibition at 1 µM [3]: -1% | inhibition at 1 µM [4]: 26% | inhibition at 1 µM [5]: 26% | inhibition at 1 µM [6]: -10% | IC50 [7]: > 50 nM | inhibition at 100 µM ([7]; at 100 μM, single point, read-out: inhibition of human BChE): 50% | inhibition at 1 µM [8]: -6% | inhibition at 1 µM [9]: 5% | % Inhibition of Specific Control Binding [10]: 0% | inhibition at 1 µM [11]: 3% | inhibition at 1 µM [12]: 17% | inhibition at 1 µM [13]: 21% | inhibition at 1 µM [14]: 0% | % Inhibition of Control Values [15]: 92% | inhibition at 1 µM [16]: -5% | inhibition at 1 µM [17]: 14% | inhibition at 1 µM [18]: 12% | inhibition at 1 µM [19]: -9% | inhibition at 1 µM [20]: -4% | % Inhibition of Specific Control Binding [21]: 4% | inhibition at 1 µM [22]: 1% | inhibition at 1 µM [23]: 0% | inhibition at 1 µM [24]: -9% | inhibition at 1 µM [25]: 6% | inhibition at 1 µM [26]: 25% | inhibition at 1 µM [27]: 28% | inhibition at 1 µM [28]: -16% | inhibition at 1 µM [29]: 0% | IC50 ([30]; average of the colorimetric and Eurofins values, read-out: average IC50 for human AChE): 64.6 nM | IC50 ([30]; colorimetric kit, n=2, read-out: IC50 against human AChE (colorimetric assay)): 73.3 nM | Hill slope, human AChE colorimetric dose-response ([30]; two-fold 16-point dilution from 20 μM): 0.84 | inhibition at 1 µM [31]: 0% | inhibition at 1 µM [32]: 5% | % Inhibition of Specific Control Binding [33]: −9% | inhibition at 1 µM [34]: -4%
